Results on 75 molecules are retold here after PubChem BioAssay AID1996.

SMILES strings stand for the structures. ≈ marks a conversion by molar mass, not a printed value.

For the data set the following is noted: buffer; pH 7.4; 200.0 µM.
Take `Cc1cc(C)c(C(=O)COC(=O)CN2C(=O)NC3(CCCC3)C2=O)cc1C`: the kinetic solubility is above 55.9 µg/mL.
To `O=C(O)CCCC(=O)N1CCOCCOCCOCCOCC1` belongs 48.2 µg/mL (≈ 145 µM).
`Cc1ccc(OCCn2cc(C=O)c3ccccc32)cc1` came in with a solubility (kinetic) of 5.3 µg/mL (≈ 19 µM).
To `Cl.N#C/C(=C\c1ccccc1)C(=O)NCCN1CCOCC1` belongs above 48.3 µg/mL; to `CC(OC(=O)COc1ccc(C#N)cc1)C(=O)c1ccccc1` (stereo not given), above 46.4 µg/mL.
To `c1ccc2c(c1)OCC(CNCC1COc3ccccc3O1)O2` (stereo not given) belongs above 47 µg/mL; to `CN(Cc1ccccc1)S(=O)(=O)c1ccccc1[N+](=O)[O-]`, 15.3 µg/mL (≈ 49.9 µM).
Next, `Cc1ccc(C(=O)Nc2scc(-c3ccccc3)c2C(=O)O)cc1`: above 50.6 µg/mL; `CCN(CC)CCOC(=O)/C=C/c1ccccc1.Cl`: 38.5 µg/mL; `O=C(CN1C(=O)C2CCCCC2C1=O)OCC(=O)c1ccc(F)cc1` (stereo not given): 49.5 µg/mL (≈ 143 µM).
In the case of `O=C(COC(=O)c1ccccc1O)Nc1cc([N+](=O)[O-])ccc1Cl`, the solubility (kinetic) is below 0.4 µg/mL.
Next, `CC(C)N1CC(C(=O)Nc2ccc(Cl)c(Cl)c2)CC1=O` (stereo not given): above 47.3 µg/mL; `CCCNC(=O)[C@H](C)NC(=O)c1ccc(Br)cc1`: above 47 µg/mL.
Next, `CCOC(=O)C1CCN(S(=O)(=O)c2ccc(C)c(C)c2)CC1`: 4.5 µg/mL (≈ 13.8 µM); `O=C(OCCCOC(=O)c1cc[n+]([O-])cc1)c1cc[n+]([O-])cc1`: above 47.7 µg/mL.
`CC(C)Cc1nc(Cl)c(C#N)c2c1CCC2` displayed a solubility (kinetic) of 3.8 µg/mL (≈ 16.2 µM).
Molecule `NC(=O)CSc1nc(-c2ccccc2)nc2c1CCCC2` showed a kinetic solubility of 0.5 µg/mL (≈ 1.67 µM).
To `Nc1nc(NCCc2ccccc2)nc(NCCO)c1[N+](=O)[O-]` belongs 46.3 µg/mL (≈ 145 µM).
The molecule `COc1ccccc1CNC(=O)CSc1nc(C)cs1` registered a solubility (kinetic) above 46.3 µg/mL.
To `CCOC(=O)C1(Cc2cccc(Cl)c2)CCCN(CCO)C1` (stereo not given) belongs 47.9 µg/mL (≈ 147 µM).
In the case of `N#C/C(=C\c1cccc([N+](=O)[O-])c1)c1ccccn1`, the solubility (kinetic) came to 3.6 µg/mL (≈ 14.3 µM).
Next, `COc1ccc2c(c1)c1ncn(Cc3ccc(F)cc3)c(=O)c1n2C`: 2.5 µg/mL (≈ 7.41 µM).
To `C#CCSc1nc(=O)c2cccnc2n1-c1ccc(C)cc1` belongs above 46.1 µg/mL; to `Cl.c1cc(CNC2C3CC4CC(C3)CC2C4)ccn1` (stereo not given), 33.7 µg/mL.
To `CCN1C(=O)C(=Cc2ccc(N3CCOCC3)o2)C(=O)N(CC)C1=S` belongs 1.1 µg/mL (≈ 3.03 µM); to `Cl.O=C(NCCCn1ccnc1)c1ccccc1F`, above 42.6 µg/mL.
In turn, `CC(=O)c1c(C)[nH]c(C(=O)CN2CCN(S(=O)(=O)c3ccccc3F)CC2)c1C` yielded a solubility (kinetic) of 6.4 µg/mL (≈ 15.2 µM).
Next, `CCOc1ccc(CC(=O)N/N=C/c2cccnc2)cc1`: above 42.5 µg/mL; `CC(C)NC(=O)N(Cc1ccc(Cl)cc1)Cc1cccs1`: 37 µg/mL (≈ 115 µM).
The molecule `Nc1ccc2c(c1)Oc1ccccc1C=C2` gave a solubility (kinetic) of 12.3 µg/mL (≈ 58.8 µM).
In turn, `COc1ccc(/C=C2\N=C(SC)N(c3ccccc3OC)C2=O)cc1` came in with a solubility (kinetic) of 1.4 µg/mL (≈ 3.95 µM).
Next, `O=C(NC1CCC(O)CC1)c1ccccc1OCc1ccc(F)cc1` (stereo not given): 46.4 µg/mL (≈ 135 µM); `Cc1cccc(OCC(=O)Nc2ccc(NC(=O)c3ccco3)cc2)c1`: 0.6 µg/mL (≈ 1.71 µM); `CN(Cc1ccc(F)cc1)C(=O)c1sccc1-c1ccccc1`: 21.4 µg/mL (≈ 65.8 µM).
Next, `Clc1cccc(OCCCn2ccnc2)c1`: above 35.5 µg/mL; `O=C1Nc2cc3c(cc2C1=O)sc1ccccc13`: 3.1 µg/mL (≈ 12.2 µM); `COc1ccc(/C(C)=N/N2CCOCC2)c(O)c1`: above 37.5 µg/mL.
`NC(=O)COC(=O)c1ccccc1OCc1ccc(Cl)cc1` registered a solubility (kinetic) of 7.2 µg/mL (≈ 22.5 µM).
Next, `COc1ccc(CNc2cc(C)nc3ccc(OC)cc23)cc1`: 37.8 µg/mL (≈ 123 µM); `O=C1CCCc2nc(N3CCN(C(=O)c4ccco4)CC3)ncc21`: above 49 µg/mL; `CCOC(=O)/C(C#N)=C/c1cccc(F)c1`: 28.6 µg/mL (≈ 130 µM).
Next, `CCOC(=O)Cn1c(=O)n(Cc2ccc(C)cc2)c(=O)c2cccnc21`: 1.4 µg/mL (≈ 3.96 µM); `COc1ccc(NC(=O)N2CCCc3ccccc32)cc1OC`: above 46.9 µg/mL.
Next, `O=C1NC(c2ccc(Cl)cc2)Oc2ccccc21` (stereo not given): 1.7 µg/mL (≈ 6.55 µM).
The molecule `S=C1NCN(Cc2ccco2)CN1c1cccc2ccccc12` had a solubility (kinetic) above 48.5 µg/mL.
Next, `CN(C)CCNC(=O)Nc1ccc([N+](=O)[O-])cc1`: above 37.8 µg/mL; `Cc1c(C(=O)NCc2ccco2)oc2c(Cl)cccc12`: 2.4 µg/mL (≈ 8.28 µM); `O=C(COC(=O)C1CC2CCCC(C1)C2=O)Nc1cccc(F)c1` (stereo not given): above 50 µg/mL.
Next, `Cc1cc(C)cc(NS(=O)(=O)Cc2ccccc2)c1`: 39.5 µg/mL (≈ 143 µM); `COC(=O)CNC(=O)c1cc(-c2ccncc2)nc2ccc(C)cc12`: above 50.3 µg/mL.
`C=CCN1C(=O)NC(=O)/C(=C/c2ccc(OCC(=O)Nc3ccc(C)cc3)cc2)C1=O` came in with a kinetic solubility above 62.9 µg/mL.
Next, `CC(C)(C)c1ccc(C(=O)NCc2ccco2)cc1`: 13.5 µg/mL (≈ 52.5 µM).
Next, `COc1c(Cl)cccc1-c1cn2ccc(C)cc2n1`: 1.4 µg/mL (≈ 5.13 µM); `COC(=O)c1cnc[nH]1`: above 18.9 µg/mL.
Next, `COc1nc(C)nc(NC(=O)NS(=O)(=O)c2ccccc2Cl)n1`: above 53.7 µg/mL.
The molecule `Cc1ccnc(NCc2cccc3ccccc23)c1.Cl` registered a kinetic solubility of 15.8 µg/mL.
To `Clc1nc(-c2ccccc2)c2ccccc2n1` belongs 17.6 µg/mL (≈ 73.1 µM).
To `CC(=O)c1ccc(Nc2ccc([N+](=O)[O-])c3nonc23)cc1` belongs 4.2 µg/mL (≈ 14.1 µM); to `CC1CN=C(NCc2ccccc2Cl)S1` (stereo not given), above 36.1 µg/mL; to `O=C(c1ccc(F)cc1)N1CCCC(c2ccccc2)C1` (stereo not given), 36.3 µg/mL (≈ 128 µM).
Next, `COc1ccccc1CNc1ccc(Br)cn1`: 11.6 µg/mL (≈ 39.6 µM); `COc1cc(/C=C/c2nc3ccccc3c(=O)[nH]2)ccc1OC(F)F`: 1.9 µg/mL (≈ 5.52 µM).
`N#Cc1c(F)cccc1NCc1cccnc1` returned a solubility (kinetic) of 33.2 µg/mL (≈ 146 µM).
`Cc1cc(C)c(S(=O)(=O)c2ccc(C(C)(C)C)cc2)c(Cl)n1` had a kinetic solubility below 0.7 µg/mL.
The molecule `CCCc1cc(C(=O)Nc2cccc([N+](=O)[O-])c2)cs1` came in with a solubility (kinetic) of 1.7 µg/mL (≈ 5.86 µM).
Next, `CC(Oc1ccc(Cl)cc1Cl)/C(N)=N/O` (stereo not given): 30.2 µg/mL (≈ 121 µM).
Next, `CC1CCCC(NC(=O)C2CC(=O)N(Cc3ccccc3)C2)C1C` (stereo not given): 37.4 µg/mL (≈ 114 µM); `CCOc1ccc(CC(=O)NCCc2cnc[nH]2)cc1`: above 41 µg/mL; `COc1ccc(NC(=O)/C=C/c2ccc(OC)c(OC)c2)cn1`: 11.3 µg/mL (≈ 35.9 µM).
To `O=C(Nc1ccc(F)c(Cl)c1)c1ccc2c(c1)OCO2` belongs below 0.6 µg/mL; to `O=C(O)CCC(CNS(=O)(=O)c1ccccc1)C(F)(F)F` (stereo not given), above 48.8 µg/mL.
The molecule `CCOCCCNC(=O)c1cc2c(=O)[nH]c3ccccc3c2s1` returned a solubility (kinetic) of 1.7 µg/mL (≈ 5.15 µM).
With `COc1ccccc1C(=O)OC1CCCN(C)C1.Cl` (stereo not given), the kinetic solubility was above 42.9 µg/mL.
To `c1ccc(CCNCC2COc3ccccc3O2)cc1` (stereo not given) belongs above 40.4 µg/mL; to `Cc1ccc(NC(=O)COC(=O)Cn2ccc(=O)[nH]c2=O)cc1C`, above 49.7 µg/mL.

For orientation: solubility (kinetic) means the concentration staying in solution when a stock, usually in DMSO, is diluted into the medium.
